Laboratory results taken from US9018233B2, “Diaminoaryl derivatives substituted by carbamate and pesticidal composition containing same” (Kyung Nong Corporation, priority 2012, dated 2015).

system: Tobacco Cutworm Moth (Spodoptera litura); assay: Insecticidal activities against tobacco cutworm moth measured by leaf-dip method; format: in vivo; conditions: 96 h, 100 ppm, after 4 days, 2nd instar larvae, leaf-dip, read-out: percent control value
Method: In this test, larvae descended from tobacco cutworm moths (Spodoptera litura), which had been collected in 2009 near Gyeongju area and reared in the laboratory, were used. […] […] The Petri dish was stored under light condition 16:8 hours, 25±1° C. and RH 50-60%, and then the number of larvae survived were counted 24, 48, 72 and 96 hours after the inoculation. As shown in Equations 1 and 2 above, the survival rate was calculated by calibrating the larvae density after treatment with the larvae density before treatment, and the control value is calculated by subtracting the survival rate in the treatment group from the survival rate in the control group and dividing the result by the survival rate in the control group.

SMILES | pest or weed control at 100 ppm [%]
CC(C)COC(=O)Nc1cc(Cl)cc(Cl)c1NC(=O)c1cc(Br)nn1-c1ncccc1Cl [Example 4, isobutyl (2-(3-bromo-1-(3-chloropyridin-2-yl)-1H-pyrazole-5-carboxamido)-3,5-dichlorophenyl)carbamate] | ≥ 80
COC(=O)Nc1cc(Cl)cc(C)c1NC(=O)c1cc(Br)nn1-c1ncccc1Cl [Example 11, methyl (2-(3-bromo-1-(3-chloropyridin-2-yl)-1H-pyrazole-5-carboxamido)-5-chloro-3-methylphenyl)carbamate] | ≥ 80
CCOC(=O)Nc1cc(Cl)cc(C)c1NC(=O)c1cc(Br)nn1-c1ncccc1Cl [Example 21, ethyl (2-(3-bromo-1-(3-chloropyridin-2-yl)-1H-pyrazole-5-carboxamido)-5-chloro-3-methylphenyl)carbamate] | ≥ 80
CCCOC(=O)Nc1cc(Cl)cc(C)c1NC(=O)c1cc(Br)nn1-c1ncccc1Cl [Example 22, propyl (2-(3-bromo-1-(3-chloropyridin-2-yl)-1H-pyrazole-5-carboxamido)-5-chloro-3-methylphenyl)carbamate] | ≥ 80
COC(=O)Nc1cc(C#N)cc(C)c1NC(=O)c1cc(Br)nn1-c1ncccc1Cl [Example 33, methyl (2-(3-bromo-1-(3-chloropyridin-2-yl)-1H-pyrazole-5-carboxamido)-5-cyano-3-methylphenyl)carbamate] | ≥ 80
COC(=O)Nc1cc(Br)cc(Br)c1NC(=O)c1cc(Br)nn1-c1ncccc1Cl [Example 40, methyl (3,5-dibromo-2-(3-bromo-1-(3-chloropyridin-2-yl)-1H-pyrazole-5-carboxamido)phenyl)carbamate] | ≥ 80
CC(C)COC(=O)Nc1cc(Br)cc(Br)c1NC(=O)c1cc(Br)nn1-c1ncccc1Cl [Example 41, isobutyl (3,5-dibromo-2-(3-bromo-1-(3-chloropyridin-2-yl)-1H-pyrazole-5-carboxamido)phenyl)carbamate] | ≥ 80
COC(=O)Nc1cc(C(F)(F)F)cc(Cl)c1NC(=O)c1cc(Br)nn1-c1ncccc1Cl [Example 48, methyl (2-(3-bromo-1-(3-chloropyridin-2-yl)-1H-pyrazole-5-carboxamido)-3-chloro-5-(trifluoromethyl)phenyl)carbamate] | ≥ 80
COC(=O)Nc1cc(C(F)(F)F)cc(Br)c1NC(=O)c1cc(Br)nn1-c1ncccc1Cl [Example 51, methyl (3-bromo-2-(3-bromo-1-(3-chloropyridin-2-yl)-1H-pyrazole-5-carboxamido)-5-(trifluoromethyl)phenyl)carbamate] | ≥ 80
COC(=O)Nc1cc([N+](=O)[O-])cc(C)c1NC(=O)c1cc(Br)nn1-c1ncccc1Cl [Example 55, Methyl (2-(3-bromo-1-(3-chloropyridin-2-yl)-1H-pyrazole-5-carboxamido)-3-methyl-5-nitrophenyl)carbamate] | ≥ 80
COC(=O)Nc1cc(C#N)cc(C)c1NC(=O)c1cc(Cl)nn1-c1ncccc1Cl [Example 56, methyl (2-(3-chloro-1-(3-chloropyridin-2-yl)-1H-pyrazole-5-carboxamido)-5-cyano-3-methylphenyl)carbamate] | ≥ 80
COC(=O)Nc1cc(C#N)cc(C)c1NC(=O)c1cc(C#N)nn1-c1ncccc1Cl [Example 57, methyl (2-(1-(3-chloropyridin-2-yl)-3-cyano-1H-pyrazole-5-carboxamido)-5-cyano-3-methylphenyl)carbamate] | ≥ 80
COC(=O)Nc1cc(C#N)cc(C)c1NC(=O)c1cc(OC)nn1-c1ncccc1Cl [Example 58, methyl (2-(1-(3-chloropyridin-2-yl)-3-methoxy-1H-pyrazole-5-carboxamido)-5-cyano-3-methylphenyl)carbamate] | ≥ 80
COC(=O)Nc1cc(C#N)cc(C)c1NC(=O)c1cc(OCC(F)(F)F)nn1-c1ncccc1Cl [Example 60, methyl (2-(3-(2,2,2-trifluoroethoxy)-1-(3-chloropyridin-2-yl)-1H-pyrazole-5-carboxamido)-5-cyano-3-methylphenyl)carbamate] | ≥ 80
COC(=O)Nc1cc(C#N)cc(C)c1NC(=O)c1cc(C(F)(F)F)nn1-c1ncccc1Cl [Example 61, methyl (2-(1-(3-chloropyridin-2-yl)-3-(trifluoromethyl)-1H-pyrazole-5-carboxamido)-5-cyano-3-methylphenyl)carbamate] | ≥ 80
COC(=O)Nc1cc(C#N)cc(C)c1NC(=O)c1cc(C(F)(F)F)nn1-c1ccccc1Cl [Example 62, methyl (2-(1-(2-chlorophenyl)-3-(trifluoromethyl)-1H-pyrazole-5-carboxamido)-5-cyano-3-methylphenyl)carbamate] | ≥ 80
CCOC(=O)Nc1cc(C#N)cc(C)c1NC(=O)c1cc(Br)nn1-c1ncccc1Cl [Example 63, ethyl (2-(3-bromo-1-(3-chloropyridin-2-yl)-1H-pyrazole-5-carboxamido)-5-cyano-3-methylphenyl)carbamate] | ≥ 80
Cc1cc(C#N)cc(NC(=O)OCCCl)c1NC(=O)c1cc(Br)nn1-c1ncccc1Cl [Example 64, 2-chloroethyl (2-(3-bromo-1-(3-chloropyridin-2-yl)-1H-pyrazole-5-carboxamido)-5-cyano-3-methylphenyl)carbamate] | ≥ 80

same assay, conditions: 96 h, read-out: percent control value

SMILES | pest or weed control at 100 ppm [%]
COC(=O)Nc1cccc(C)c1NC(=O)c1cc(Br)nn1-c1ncccc1Cl [Example 54, Methyl (2-(3-bromo-1-(3-chloropyridin-2-yl)-1H-pyrazole-5-carboxamido)-3-methylphenyl)carbamate] | ≥ 80
